Target: Protein Kinase C beta 2 (PKCβII) (Homo sapiens (Human), UniProt P05771)
Experiment: PKCβII coupled spectrophotometric kinase assay (PK/LDH, NADH absorbance at 340 nm)
Type: biochemical
Details: apparent Ki, ATP competitive inhibition model (Morrison equation); 0.1 mM ATP, 5 nM PKC, 30° C.; read-out: Ki app
Description: Protein Kinase C beta 2 (PKCβII) catalyzes the production of ADP from ATP that accompanies the phosphoryl transfer to the PKC Pseudosubstrate peptide (A→S, RFARKGSLRQKNV). This transfer is coupled to the oxidation of β-NADH through the activities of Pyruvate Kinase (PK) and Lactate Dehydrogenase (LDH). β-NADH conversion to NAD+ is monitored by the decrease in absorbance at 340 nm (e=6.22 cm^−1 mM^−1) using a Molecular Devices SPECTRA max PLUS spectrophotometer.
A typical assay was carried out on a 96-well, clear microtiter plate in a Molecular Devices spectrophotometer for 20 minutes at 30° C. in 0.1 mL of assay buffer containing 50 mM HEPES, pH 7.4, 5 nM PKC, 23 units of pyruvate kinase, 33 units of lactate dehydrogenase, 0.15 mM peptide, 0.1 mM ATP, 1 mM DTT, 4 mM PEP, 8 mM MgCl2, 0.3 mM NADH, 60 mM CaCl2, 10 mg/mL PS, 50 ng/mL PMA, 7.5% DMSO and from about 10,000 nM to 0.169 nM compound inhibitor. Stock solutions of 3-sn-phosphatidyl-L-serine (PS) and phorbol-12-myristate-13-acetate (PMA) were sonicated for 30 seconds just prior to addition to assay buffer and assays were initiated by the addition of 100 μM ATP.
Steady-state kinetic parameters for the bi-bi kinase reaction were determined at saturating phospho-acceptor peptide substrate concentration (0.15 mM) by fitting initial velocity data to the Michaelis-Menten equation, v=Vmax[S]/(KM+[S]) where v is the measured initial velocity, Vmax is the maximal enzyme velocity, [S] is the ATP substrate concentration, and KM is the Michealis constant for ATP. Enzyme turnover values (kcat) were calculated according to […], where [E] is the total enzyme concentration. Enzyme inhibition constants (apparent Ki values) were determined by fitting initial velocities at variable inhibitor concentrations to a model for ATP competitive inhibition based on the Morrison equation). Morrison, J. F., Biochim. Biophys Acta 185: 269-286 (1969).

Protein Kinase C beta 2 (PKCβII), sequence (P05771 other isoform, or with tags, fused parts or gaps): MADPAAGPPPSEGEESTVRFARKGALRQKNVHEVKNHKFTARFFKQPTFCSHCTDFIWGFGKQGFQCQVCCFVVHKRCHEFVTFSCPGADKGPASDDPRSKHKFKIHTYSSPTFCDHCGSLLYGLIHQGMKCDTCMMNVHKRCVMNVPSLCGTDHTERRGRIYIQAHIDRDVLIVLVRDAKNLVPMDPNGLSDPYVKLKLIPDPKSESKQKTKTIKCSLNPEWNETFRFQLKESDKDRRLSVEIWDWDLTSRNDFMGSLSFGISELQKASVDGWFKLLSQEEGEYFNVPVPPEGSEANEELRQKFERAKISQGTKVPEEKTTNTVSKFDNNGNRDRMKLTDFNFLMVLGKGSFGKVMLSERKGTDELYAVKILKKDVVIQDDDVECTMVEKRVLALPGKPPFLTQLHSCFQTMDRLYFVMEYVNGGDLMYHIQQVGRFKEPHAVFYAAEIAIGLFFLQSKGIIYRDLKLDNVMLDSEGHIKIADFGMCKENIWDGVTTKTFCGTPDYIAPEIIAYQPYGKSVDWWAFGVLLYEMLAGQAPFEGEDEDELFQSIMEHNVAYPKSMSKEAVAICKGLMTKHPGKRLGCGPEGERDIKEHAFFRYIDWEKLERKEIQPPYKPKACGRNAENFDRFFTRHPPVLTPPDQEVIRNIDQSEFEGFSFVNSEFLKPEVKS

Compound	Ki
CCNc1ncc(F)c(Nc2n[nH]c3c2CN(C(=O)N2C[C@@H](C)N(CCOC)C[C@@H]2C)C3(C)C)n1 [Example B4, N^2-ethyl-5-fluoro-N4-(5-{[(2S,5R)-4-(2-methoxyethyl)-2,5-dimethylpiperazin-1-yl]carbonyl}-6,6-dimethyl-1,4,5,6-tetrahydropyrrolo[3,4-c]pyrazol-3-yl)pyrimidine-2,4-diamine]	13.5 nM
Cc1ncc(F)c(Nc2n[nH]c3c2CN(C(=O)N2C[C@@H](C)N(CC4(O)CCOCC4)C[C@@H]2C)C3(C)C)n1 [Example H8, 4-[((2R,5S)-4-{[3-[(5-fluoro-2-methylpyrimidin-4-yl)amino]-6,6-dimethyl-4,6-dihydropyrrolo[3,4-c]pyrazol-5(1H)-yl]carbonyl}-2,5-dimethylpiperazin-1-yl)methyl]tetrahydro-2H-pyran-4-ol]	157 nM
Cc1ncc(F)c(Nc2n[nH]c3c2CN(C(=O)C2(F)CCN(C)CC2)C3(C)C)n1 [Example F1, 5-[(4-fluoro-1-methylpiperidin-4-yl)carbonyl]-N-(5-fluoro-2-methylpyrimidin-4-yl)-6,6-dimethyl-1,4,5,6-tetrahydropyrrolo[3,4-c]pyrazol-3-amine]	39.9 nM
CNc1ncc(F)c(Nc2n[nH]c3c2CN(C(=O)N2CC(C)(C)N(C)C[C@@H]2C)C3(C)C)n1 [Example A6, N^4-(6,6-dimethyl-5-{[(2S)-2,4,5,5-tetramethylpiperazin-1-yl]carbonyl}-1,4,5,6-, tetrahydropyrrolo[3,4-c]pyrazol-3-yl)-5-fluoro-N^2-methylpyrimidine-2,4-diamine]	10.8 nM
Cc1ncc(F)c(Nc2n[nH]c3c2CN(C(=O)N2C[C@@H](C)N(C)C[C@@H]2C)C3(C)C)n1 [Example H2, N-(5-fluoro-2-methylpyrimidin-4-yl)-6,6-dimethyl-5-{[(2S,5R)-2,4,5-trimethylpiperazin-1-yl]carbonyl}-1,4,5,6-tetrahydropyrrolo[3,4-c]pyrazol-3-amine]	18.1 nM
CC[C@@H]1CN(C(=O)N2Cc3c(Nc4nc(C)ncc4F)n[nH]c3C2(C)C)CCN1C [Example H5, 5-{[(3R)-3-ethyl-4-methylpiperazin-1-yl]carbonyl}-N-(5-fluoro-2-methylpyrimidin-4-yl)-6,6-dimethyl-1,4,5,6-tetrahydropyrrolo[3,4-c]pyrazol-3-amine]	50.8 nM
CC(C)Nc1ncc(F)c(Nc2n[nH]c3c2CN(C(=O)N2CC(C)(C)N(C)C[C@@H]2C)C3(C)C)n1 [Example A7, N^4-(6,6-dimethyl-5-{[(2S)-2,4,5,5-tetramethylpiperazin-1-yl]carbonyl}-1,4,5,6-tetrahydropyrrolo[3,4-c]pyrazol-3-yl)-5-fluoro-N^2-isopropylpyrimidine-2,4-diamine]	3.81 nM
CCNc1ncc(F)c(Nc2n[nH]c3c2CN(C(=O)N2C[C@@H](C)N(C)C[C@@H]2C)C3(C)C)n1 [Example B3, N^4-(6,6-dimethyl-5-{[(2S,5R)-2,4,5-trimethylpiperazin-1-yl]carbonyl}-1,4,5,6-tetrahydropyrrolo[3,4-c]pyrazol-3-yl)-N^2-ethyl-5-fluoropyrimidine-2,4-diamine]	2.03 nM
CCc1ncc(F)c(Nc2n[nH]c3c2CN(C(=O)N2CC(C)(C)N(C)C[C@@H]2C)C3(C)C)n1 [Example D1, N-(2-ethyl-5-fluoropyrimidin-4-yl)-6,6-dimethyl-5-{[(2S)-2,4,5,5-tetramethylpiperazin-1-yl]carbonyl}-1,4,5,6-tetrahydropyrrolo[3,4-c]pyrazol-3-amine]	5.43 nM

The next lines start with the values.

Ki	Compound
168 nM	COCCOc1ncc(F)c(Nc2n[nH]c3c2CN(C(=O)C2(F)CCN(C)CC2)C3(C)C)n1 [Example L2, N-[5-fluoro-2-(2-methoxyethoxy)pyrimidin-4-yl]-5-[(4-fluoro-1-methylpiperidin-4-yl)carbonyl]-6,6-dimethyl-1,4,5,6-tetrahydropyrrolo[3,4-c]pyrazol-3-amine]
16.1 nM	CCOc1ccnc(Nc2n[nH]c3c2CN(C(=O)N2C[C@@H](C)N(CCCOC)C[C@@H]2C)C3(C)C)n1 [Example M2, N-(4-ethoxypyrimidin-2-yl)-5-{[(2S,5R)-4-(3-methoxypropyl)-2,5-dimethylpiperazin-1-yl]carbonyl}-6,6-dimethyl-1,4,5,6-tetrahydropyrrolo[3,4-c]pyrazol-3-amine]
< 10 nM	Cc1ccnc(Nc2n[nH]c3c2CN(C(=O)N2C[C@@H](C)N(C4CCOCC4)C[C@@H]2C)C3(C)C)n1 [Example J12, 5-{[(2S,5R)-2,5-dimethyl-4-(tetrahydro-2H-pyran-4-yl)piperazin-1-yl]carbonyl}-6,6-dimethyl-N-(4-methylpyrimidin-2-yl)-1,4,5,6-tetrahydropyrrolo[3,4-c]pyrazol-3-amine]
12.8 nM	COCCCOc1ncc(F)c(Nc2n[nH]c3c2CN(C(=O)N2CC(C)(C)N(C)C[C@@H]2C)C3(C)C)n1 [Example K9, N-[5-fluoro-2-(3-methoxypropoxy)pyrimidin-4-yl]-6,6-dimethyl-5-{[(2S)-2,4,5,5-tetramethylpiperazin-1-yl]carbonyl}-1,4,5,6-tetrahydropyrrolo[3,4-c]pyrazol-3-amine]
1.17 nM	Cc1ccc(F)c(Nc2n[nH]c3c2CN(C(=O)N2CC(C)(C)N(C)C[C@@H]2C)C3(C)C)n1 [Example J6, N-(3-fluoro-6-methylpyridin-2-yl)-6,6-dimethyl-5-{[(2S)-2,4,5,5-tetramethylpiperazin-1-yl]carbonyl}-1,4,5,6-tetrahydropyrrolo[3,4-c]pyrazol-3-amine]
< 10 nM	COCc1ncc(F)c(Nc2n[nH]c3c2CN(C(=O)N2C[C@@H](C)N(CC4CCOCC4)C[C@@H]2C)C3(C)C)n1 [Example N1, 5-{[(2S,5R)-2,5-dimethyl-4-(tetrahydro-2H-pyran-4-ylmethyl)piperazin-1-yl]carbonyl}-N-[5-fluoro-2-(methoxymethyl)pyrimidin-4-yl]-6,6-dimethyl-1,4,5,6-tetrahydropyrrolo[3,4-c]pyrazol-3-amine]
59.9 nM	Cc1cccc(Nc2n[nH]c3c2CN(C(=O)C2(F)CCN(C)CC2)C3(C)C)n1 [Example J2, 5-[(4-fluoro-1-methylpiperidin-4-yl)carbonyl]-6,6-dimethyl-N-(6-methylpyridin-2-yl)-1,4,5,6-tetrahydropyrrolo[3,4-c]pyrazol-3-amine]
111 nM	Cc1cccc(Nc2n[nH]c3c2CN(C(=O)N2C[C@]4(C)CCCN4C[C@@H]2C)C3(C)C)n1 [Example J7, 5-{[(3S,8aS)-3,8a-dimethylhexahydropyrrolo[1,2-a]pyrazin-2(1H)-yl]carbonyl}-6,6-dimethyl-N-(6-methylpyridin-2-yl)-1,4,5,6-tetrahydropyrrolo[3,4-c]pyrazol-3-amine]
22.9 nM	CCN1C[C@H](C)N(C(=O)N2Cc3c(Nc4nc(OC)ncc4F)n[nH]c3C2(C)C)C[C@H]1C [Example AA1, 5-{[(2S,5R)-4-ethyl-2,5-dimethylpiperazin-1-yl]carbonyl}-N-(5-fluoro-2-methoxypyrimidin-4-yl)-6,6-dimethyl-1,4,5,6-tetrahydropyrrolo[3,4-c]pyrazol-3-amine]
71.7 nM	CCOc1ncc(F)c(Nc2n[nH]c3c2CN(C(=O)N2CCN4CCC[C@@H]4C2)C3(C)C)n1 [Example K14, [3-(2-Ethoxy-5-fluoro-pyrimidin-4yl-amino)-6,6-dimethyl-4,6-dihydro-1H-pyrrolo[3,4-c]pyrazol-5-yl]-(R)-hexahydro-pyrrolo[1,2-a]pyrazin-2-yl-methanone]
11.2 nM	CCOc1ncc(F)c(Nc2n[nH]c3c2CN(C(=O)N2C[C@]4(C)CCCN4C[C@@H]2C)C3(C)C)n1 [Example K15, 5-{[(3S,8aS)-3,8a-dimethylhexahydropyrrolo[1,2-a]pyrazin-2(1H)-yl]carbonyl}-N-(2-ethoxy-5-fluoropyrimidin-4-yl)-6,6-dimethyl-1,4,5,6-tetrahydropyrrolo[3,4-c]pyrazol-3-amine]
15.3 nM	CCOc1ncc(F)c(Nc2n[nH]c3c2CN(C(=O)N2C[C@@H](C)N(CC4(O)CCOCC4)C[C@@H]2C)C3(C)C)n1 [Example K22, 4-[((2R,5S)-4-{[3-[(2-ethoxy-5-fluoropyrimidin-4-yl)amino]-6,6-dimethyl-4,6-dihydropyrrolo[3,4-c]pyrazol-5(1H)-yl]carbonyl}-2,5-dimethylpiperazin-1-yl)methyl]tetrahydro-2H-pyran-4-ol]
8.64 nM	Cc1ccc(F)c(Nc2n[nH]c3c2CN(C(=O)N2C[C@]4(C)CCCN4C[C@@H]2C)C3(C)C)n1 [Example J4, 5-{[(3S,8aS)-3,8a-dimethylhexahydropyrrolo[1,2-a]pyrazin-2(1H)-yl]carbonyl}-N-(3-fluoro-6-methylpyridin-2-yl)-6,6-dimethyl-1,4,5,6-tetrahydropyrrolo[3,4-c]pyrazol-3-amine]

Reference: US9518060B2, “Substituted pyrrolo[3,4-c]pyrazoles as PKC kinase inhibitors” (PFIZER INC., priority 2007, dated 2016)
